Non-standard residues stand in square brackets, D forms with d. Residues, ends and D or L forms follow the SMILES beside them. *: point of attachment. PEG8 = NCCOCCOCCOCCOCCOCCOCCOCCOCCC(=O)O; Palmitoyl = CCCCCCCCCCCCCCCC(=O)*; Tic = O=C(O)[C@@H]1Cc2ccccc2CN1; Nle = CCCC[C@H](N)C(=O)O; Nva = CCC[C@H](N)C(=O)O
Key:
CD4+ T cells = assay: Immunohistochemistry count of CD4+ T cells in conjunctival epithelium, dry eye; assay type: in vivo, mouse; settings: FIG. 3 and 5
Experimental: In FIGS. 3 and 5, immunohistochemistry is used to detect CD4+ T cells. Enucleated mouse eyes with intact conjunctiva were suspended in optimal cutting temperature (OCT) compound and flash frozen in liquid nitrogen. Immunohistochemistry was performed on six micrometer frozen sections to detect and count the number of cells in conjunctival epithelium that stained positively for CD4, a biotinylated secondary antibody and NovaRED peroxidase. Positively stained cells were counted in the conjunctiva using Nikon imaging software.

[1] = test system: conjunctival goblet cells (GC); assay: Conjunctival goblet cell density measurement, dry eye; assay type: in vivo, mouse; settings: superior and inferior conjunctiva; FIG. 4 and 6
Experimental: In FIGS. 4 and 6, conjunctival goblet cells (GC) measurement is performed as follows. Enucleated mouse eyes with intact conjunctiva were fixed in 10% formalin and embedded in paraffin. Six-micrometer sections were stained with periodic acid-Schiff reagent.

| SMILES | dry eye induced CD4+ T-cells infiltration (CD4+ T cells) | dry eye induced loss of goblet cell density [1] |
| --- | --- | --- |
| CCCCCCCCCCCCCCCC(=O)NCCOCCOCCOCCOCCOCCOCCOCCOCCC(=O)N[C@@H](CCC)C(=O)NCC(=O)N[C@H](Cc1ccc(O)cc1)C(=O)N[C@@H](Cc1ccccc1)C(=O)N[C@@H](CCCC)C(=O)N1CCC[C@H]1C(=O)N[C@H](CO)C(=O)N[C@@H](CCC(N)=O)C(=O)N[C@@H](Cc1ccccc1)C(=O)N[C@H](C)C(=O)N1Cc2ccccc2C[C@H]1C(=O)N[C@H](C)C(=O)O [OK-113, NorV-Gly-dTyr-Phe-Nle-Pro-dSer-Gln-Phe-dAla-Tic-dAla] ({Palmitoyl-PEG8}-[Nva]G[dY]F[Nle]P[dS]QF[dA][Tic][dA]-OH) | significantly reduced | normalized |
| CCCCCCCCCCCCCCCC(=O)NCCOCCOCCOCCOCCOCCOCCOCCOCCC(=O)NCC(=O)NCC(=O)N[C@H](Cc1ccc(O)cc1)C(=O)N[C@@H](Cc1ccccc1)C(=O)N[C@@H](CC(C)C)C(=O)N1CCC[C@H]1C(=O)N[C@H](CO)C(=O)N[C@@H](CCC(N)=O)C(=O)N[C@@H](Cc1ccccc1)C(=O)N[C@H](C)C(=O)N1Cc2ccccc2C[C@H]1C(=O)N[C@@H](CO)C(=O)O [OK-101, Gly-Gly-dTyr-Phe-Leu-Pro-dSer-Gln-Phe-dAla-Tic-Ser] ({Palmitoyl-PEG8}-GG[dY]FLP[dS]QF[dA][Tic]S-OH) | significantly reduced | normalized |

— patent publication US12559523B2, “Compositions comprising chemerin analogs and methods of use” (OKYO Pharma Limited, priority 2019, dated 2026)
